Data as given in patent publication US20250032444A1, “Prevention and treatment of depressive disorders and conditions promoted by protease containing plasma extracellular vesicles (PCpEV)” (Evexys Biotech Oy, priority 2021, published 2025).

Key:
[1] = Treatment of patients with 4MU; type: in vivo; conditions: 4×300 mg 4MU
three isotypes of HAS = conditions: cited from earlier work
Choriod Plexus = assay: Accumulation of labeled EV in the choroid plexus after tail vein injection of 4MU-treated EV; type: in vivo; conditions: 72 h after injection of 4MU-treated EV into tail veins of a mouse, n=4/condition; FIG. 3
Description: (A) Accumulation/absence of accumulation of labeled pEV (red) in the Choriod Plexus 72 h after injection of 4MU-treated EV into tail veins of a mouse (n=4/condition). (B) IHC of a hippocampal section and quantification of EVc pos. cells. Statistical significance by one-way ANOVA and Tukey's test, ***p<0.005.

[2] = cited from earlier work
Huh7 liver cells = assay: Uptake of HA, ADAM10/17, Hck and MMPs into EV from HAS-induced Huh7 liver cells (Western blot); type: cell-based
Description: (B): Hymecromone inhibits the uptake of HA into EV. […] Subsequently EV were purified from culture supernatant of Huh7 cells that were not treated for HAS induction (nil), from Huh7 cells that were treated for HAS induction (48 h; HAS-nd.) and from Huh7 cells that were treated for has induction and additionally incubated with Hymecromone (HAS-ind.+HyCr.). CD81 served as a loading control for pEV. Cell lysates from 293 T cells served as positive control for HA.
Subsequently EV were purified from culture supernatant of Huh7 cells that were not treated for HAS induction (nil), from Huh7 cells that were treated for HAS induction (48 h; HAS-ind.) and from Huh7 cells that were treated for HAS induction and additionally incubated with Hymecromone (HAS-nd.+HyCr.). Red arrows indicate the enzymatic active form of ADAM10 and ADAM17. CD81 served as a loading control for pEV. Cell lysates from 293 T cells served as positive control for HA.
In vitro a concentration of 300 μmol was sufficient to completely block the uploading of HA, Hck, and ADAM10 into vesicles. Whether these concentrations can be reached in circulation after oral uptake is not clear, as Hymecromone is efficiently metabolized in the […]. On the other hand PCpEV are generated by liver cells where Hymecromone is metabolized. […] Furthermore, there are likely inter-individual differences with respect to Hymecromone metabolization.
293Tcells were cultured in DMEM (Lonza), 10% (v/v) fetal bovine serum (FBS) with Penicillin-Strepto-mycin at 37° C., 5% CO2. For transient transfection, plasmids encoding the indicated proteins were transfected with Lipofectamine® LTX with Plus™ Reagent (Invitrogen) according to the manufacturer's instructions, or using the classical calcium phosphate procedure. Cells were used for experiments 24-72 h after transfection. Hymecromone was added at a final concentration of […] after transfection. For immunoblotting 20 μg of cellular protein lysate and 10 μg of EV lysate were loaded per lane. The latter corresponded to the production/secretion of 2-4 mio 293T cells within 48 h transfected and grown in one 10 cm dish.

Cc1cc(=O)oc2cc(O)ccc12 [Hymecromone, 4-methylumbelliferone]
clinical outcome, Long COVID ([1]; 32 old patient): fully recovered
clinical outcome, Alzheimer's disease (AD)-associated depression ([1]; patient): improved significantly
inhibition of the three isotypes of HAS (three isotypes of HAS): efficiently inhibited
EV upload and CP targeting (Choriod Plexus): blocks
serious side effects in clinical trials ([2]; at least 182 patients treated in clinical trials): no serious side effects
fraction of unchanged Hymecromone reaching systemic circulation ([2]; efficient metabolism by the liver): low
uptake of ADAM10 and 17 and Hck into EV (Huh7 liver cells; Huh7 cells treated for HAS induction (48 h) and incubated with Hymecromone, FIG. 2): inhibits
uptake of HA into EV (Huh7 liver cells; Huh7 cells treated for HAS induction (48 h) and incubated with Hymecromone, Western blot, FIG. 1B): inhibits
concentration sufficient to completely block the uploading of HA, Hck, and ADAM10 into vesicles (Huh7 liver cells; in vitro): 300 µmol
incorporation of LMW-HA, ADAM10/17, Hck, and MMPs into extracellular vesicles (Huh7 liver cells; pharmacological inhibition of HAS activity): efficiently blocked
